Consider twelve molecules from ChEMBL document CHEMBL5223065, “Targeting the protease of West Nile virus” (RSC Med Chem, 2021).

In data set [1] the test system is dengue virus type 4. Put plainly: Antiviral activity against DENV4 infected in African green monkey Vero cells assessed as inhibition of viral infection by virucidal assay. It counts as functional, organism-based.
For data set [2], the system named is dengue virus type 1. Briefly: Antiviral activity against DENV1 infected in African green monkey Vero cells assessed as inhibition of viral infection by virucidal assay. It counts as functional, organism-based.
Data set [3] deals with dengue virus type 3. Briefly: Antiviral activity against DENV3 infected in African green monkey Vero cells assessed as inhibition of viral infection by virucidal assay. It counts as functional, organism-based.
For data set [4], the system named is dengue virus type 2. Briefly: Antiviral activity against DENV2 infected in African green monkey Vero cells assessed as inhibition of viral infection by virucidal assay. It counts as functional, organism-based.
The nature of data set [5]: Cytotoxicity against African green monkey Vero cells incubated for 24 hrs by MTT assay. To be noted: chlorocebus sabaeus. It is filed as toxicity, cell-based.
A short description of data set [6]: Inhibition of DENV3 NS2B (50 to 95 residues)-NS3 (1 to 182 residues) protease expressed in Escherichia coli BL21-rosetta cells using Bz-Nle-Lys-Lys-Arg-AMC as substrate preincubated for 10 mins followed by substrate addition and measured every 30 secs. The arrangement: species or system dengue virus type 3.
The nature of data set [7]: Cytotoxicity against golden hamster BHK-21 cells incubated for 24 hrs by CCK-8 assay. It counts as toxicity, cell-based, Mesocricetus auratus. For orientation: Tetrazolium dyes change colour on reduction, which living cells bring about.
Data set [8] deals with dengue virus type 2. Put plainly: Antiviral activity against DENV2 infected in golden hamster BHK-21 cells preincubated with virus for 18 hrs followed by compound addition and measured after 24 hrs by plaque reduction assay. It counts as functional, organism-based.
Data set [9] addresses Genome polyprotein (West Nile virus) (UniProt P06935). Briefly: Inhibition of West Nile virus NS2B-NS3 protease using Bz-nKRR-AMC as substrate assessed as inhibition constant preincubated for 30 mins followed by substrate addition and measured after 60 mins by fluorescence based microplate reader analysis. To be noted: time 90.0 min.
Target sequence in this assay (P06935 whole entry): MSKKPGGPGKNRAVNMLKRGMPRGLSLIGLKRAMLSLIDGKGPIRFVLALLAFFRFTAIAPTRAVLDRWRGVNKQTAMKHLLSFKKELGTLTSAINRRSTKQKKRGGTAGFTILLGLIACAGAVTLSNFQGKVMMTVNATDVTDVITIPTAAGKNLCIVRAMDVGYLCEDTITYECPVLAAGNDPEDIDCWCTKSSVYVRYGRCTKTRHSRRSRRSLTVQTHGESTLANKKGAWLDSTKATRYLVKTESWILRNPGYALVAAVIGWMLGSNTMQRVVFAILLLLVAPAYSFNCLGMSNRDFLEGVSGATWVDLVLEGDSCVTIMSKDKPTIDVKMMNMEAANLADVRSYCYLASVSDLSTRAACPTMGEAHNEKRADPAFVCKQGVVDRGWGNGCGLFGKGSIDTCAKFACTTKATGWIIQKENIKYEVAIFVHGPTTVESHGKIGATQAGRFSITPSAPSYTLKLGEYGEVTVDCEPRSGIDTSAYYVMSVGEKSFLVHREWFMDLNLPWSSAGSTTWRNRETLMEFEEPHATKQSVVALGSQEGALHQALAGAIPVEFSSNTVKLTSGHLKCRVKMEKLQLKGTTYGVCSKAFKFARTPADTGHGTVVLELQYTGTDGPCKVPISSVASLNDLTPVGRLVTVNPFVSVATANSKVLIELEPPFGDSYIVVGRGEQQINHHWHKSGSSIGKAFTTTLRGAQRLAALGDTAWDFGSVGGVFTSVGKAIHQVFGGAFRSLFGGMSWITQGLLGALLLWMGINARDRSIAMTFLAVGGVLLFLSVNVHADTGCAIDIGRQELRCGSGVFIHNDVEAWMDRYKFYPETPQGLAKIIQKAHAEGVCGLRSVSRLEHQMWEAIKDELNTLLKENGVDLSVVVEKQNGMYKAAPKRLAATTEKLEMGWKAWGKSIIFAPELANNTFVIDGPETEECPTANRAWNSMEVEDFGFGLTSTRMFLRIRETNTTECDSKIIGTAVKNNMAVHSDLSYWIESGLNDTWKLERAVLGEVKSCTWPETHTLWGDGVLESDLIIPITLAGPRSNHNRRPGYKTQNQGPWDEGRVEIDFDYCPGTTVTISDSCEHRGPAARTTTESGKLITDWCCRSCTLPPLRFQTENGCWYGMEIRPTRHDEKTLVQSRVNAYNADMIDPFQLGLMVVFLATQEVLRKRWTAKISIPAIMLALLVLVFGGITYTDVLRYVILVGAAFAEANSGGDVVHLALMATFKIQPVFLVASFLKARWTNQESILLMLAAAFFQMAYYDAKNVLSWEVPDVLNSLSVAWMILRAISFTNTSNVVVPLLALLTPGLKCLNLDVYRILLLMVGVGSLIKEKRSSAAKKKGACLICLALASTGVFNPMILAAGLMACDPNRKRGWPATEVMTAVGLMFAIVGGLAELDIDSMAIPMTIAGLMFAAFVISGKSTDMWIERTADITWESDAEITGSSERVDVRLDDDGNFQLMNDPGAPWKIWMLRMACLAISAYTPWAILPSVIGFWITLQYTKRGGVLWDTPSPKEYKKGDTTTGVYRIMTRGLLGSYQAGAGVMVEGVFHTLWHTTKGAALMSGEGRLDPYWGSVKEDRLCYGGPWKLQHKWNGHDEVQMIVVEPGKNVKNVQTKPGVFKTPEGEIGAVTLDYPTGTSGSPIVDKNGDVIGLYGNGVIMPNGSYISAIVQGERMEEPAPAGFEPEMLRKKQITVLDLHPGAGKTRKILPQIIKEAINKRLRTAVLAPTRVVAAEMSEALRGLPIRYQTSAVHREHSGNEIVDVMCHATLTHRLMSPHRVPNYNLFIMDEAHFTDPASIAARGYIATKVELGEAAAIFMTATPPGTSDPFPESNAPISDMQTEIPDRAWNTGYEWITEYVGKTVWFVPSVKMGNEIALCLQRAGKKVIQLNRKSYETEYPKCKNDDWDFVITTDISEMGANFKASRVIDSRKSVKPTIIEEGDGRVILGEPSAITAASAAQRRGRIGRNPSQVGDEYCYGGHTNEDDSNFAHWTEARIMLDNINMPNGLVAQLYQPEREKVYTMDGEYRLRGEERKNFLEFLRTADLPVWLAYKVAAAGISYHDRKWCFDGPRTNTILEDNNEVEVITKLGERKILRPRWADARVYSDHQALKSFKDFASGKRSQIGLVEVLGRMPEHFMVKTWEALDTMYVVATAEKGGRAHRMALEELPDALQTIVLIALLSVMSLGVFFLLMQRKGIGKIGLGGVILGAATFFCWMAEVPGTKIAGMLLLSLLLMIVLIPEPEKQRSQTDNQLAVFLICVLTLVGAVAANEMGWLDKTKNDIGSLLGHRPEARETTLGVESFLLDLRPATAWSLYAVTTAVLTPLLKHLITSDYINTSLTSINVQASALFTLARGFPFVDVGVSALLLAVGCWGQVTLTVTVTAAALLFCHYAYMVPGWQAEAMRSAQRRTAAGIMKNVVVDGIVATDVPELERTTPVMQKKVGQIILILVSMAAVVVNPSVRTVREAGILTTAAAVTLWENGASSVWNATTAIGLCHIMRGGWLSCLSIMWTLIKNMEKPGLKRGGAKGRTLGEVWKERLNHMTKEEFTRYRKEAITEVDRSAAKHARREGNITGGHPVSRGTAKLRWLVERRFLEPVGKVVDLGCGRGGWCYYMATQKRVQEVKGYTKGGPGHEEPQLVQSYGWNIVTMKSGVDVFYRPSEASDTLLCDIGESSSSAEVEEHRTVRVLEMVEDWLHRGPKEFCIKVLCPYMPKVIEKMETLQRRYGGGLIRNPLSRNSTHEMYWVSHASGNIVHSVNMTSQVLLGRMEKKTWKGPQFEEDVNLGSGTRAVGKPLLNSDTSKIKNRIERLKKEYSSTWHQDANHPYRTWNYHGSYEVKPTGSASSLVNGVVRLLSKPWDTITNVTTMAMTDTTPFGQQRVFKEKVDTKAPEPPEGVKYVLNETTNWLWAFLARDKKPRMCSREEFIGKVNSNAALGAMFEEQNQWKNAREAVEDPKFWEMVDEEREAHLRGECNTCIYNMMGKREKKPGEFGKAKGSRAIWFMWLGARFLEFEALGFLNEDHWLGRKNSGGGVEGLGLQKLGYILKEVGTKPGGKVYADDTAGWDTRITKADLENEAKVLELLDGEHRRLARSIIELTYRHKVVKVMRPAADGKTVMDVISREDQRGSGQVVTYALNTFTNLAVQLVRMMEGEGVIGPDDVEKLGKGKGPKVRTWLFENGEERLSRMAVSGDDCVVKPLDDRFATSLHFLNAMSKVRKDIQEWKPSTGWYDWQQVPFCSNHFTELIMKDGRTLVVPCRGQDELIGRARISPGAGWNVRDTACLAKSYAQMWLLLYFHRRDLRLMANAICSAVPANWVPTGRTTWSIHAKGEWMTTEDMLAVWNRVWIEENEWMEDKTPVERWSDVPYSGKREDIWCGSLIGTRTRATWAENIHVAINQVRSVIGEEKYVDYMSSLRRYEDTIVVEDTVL
The target is the same in data set [10]. Put plainly: Uncompetitive inhibition of recombinant West Nile virus NS2B-NS3 protease using Pyr-RTKR-AMC as substrate assessed as inhibition constant preincubated for 15 mins followed by substrate addition.
Target sequence in this assay (P06935 1371-1501 limits assumed): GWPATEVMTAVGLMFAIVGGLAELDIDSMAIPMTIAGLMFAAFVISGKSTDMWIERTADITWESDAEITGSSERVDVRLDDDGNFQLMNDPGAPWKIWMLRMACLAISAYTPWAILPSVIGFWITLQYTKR
Target sequence in this assay (P06935 1502-2120 limits assumed): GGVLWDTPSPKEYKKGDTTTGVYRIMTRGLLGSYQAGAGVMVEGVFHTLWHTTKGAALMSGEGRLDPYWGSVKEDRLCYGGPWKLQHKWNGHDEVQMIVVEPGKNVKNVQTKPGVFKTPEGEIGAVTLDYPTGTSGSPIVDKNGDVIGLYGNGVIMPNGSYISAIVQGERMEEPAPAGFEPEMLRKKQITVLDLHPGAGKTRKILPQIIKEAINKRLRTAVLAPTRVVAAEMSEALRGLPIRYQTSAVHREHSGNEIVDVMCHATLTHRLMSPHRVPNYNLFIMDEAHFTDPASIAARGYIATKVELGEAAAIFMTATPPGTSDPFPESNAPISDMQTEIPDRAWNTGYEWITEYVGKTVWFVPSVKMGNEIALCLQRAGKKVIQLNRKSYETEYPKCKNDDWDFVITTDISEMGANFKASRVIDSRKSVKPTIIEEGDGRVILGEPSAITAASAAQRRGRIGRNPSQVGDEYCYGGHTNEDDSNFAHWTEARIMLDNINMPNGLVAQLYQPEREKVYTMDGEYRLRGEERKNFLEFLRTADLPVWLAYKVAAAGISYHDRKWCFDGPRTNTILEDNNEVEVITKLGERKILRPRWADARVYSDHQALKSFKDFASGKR
Data set [11] has as its target Prothrombin (Homo sapiens, UniProt P00734). Briefly: Inhibition of thrombin (unknown origin) using CH3SO2-dCha-Gly-Arg-pNA as substrate by […] plate reader analysis.
In data set [12] the target is Coagulation factor X (Homo sapiens, UniProt P00742). Put plainly: Inhibition of factor Xa (unknown origin) using CH3OCO-dCha-Gly-Arg-pNA as substrate by […] plate reader analysis.
Sequence of Coagulation factor X (P00742 41-179 limits assumed): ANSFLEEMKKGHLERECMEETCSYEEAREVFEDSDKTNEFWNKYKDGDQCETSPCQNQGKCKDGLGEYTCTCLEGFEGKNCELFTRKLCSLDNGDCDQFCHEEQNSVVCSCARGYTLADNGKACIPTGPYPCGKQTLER
Sequence of Coagulation factor X (P00742 235-488 limits assumed): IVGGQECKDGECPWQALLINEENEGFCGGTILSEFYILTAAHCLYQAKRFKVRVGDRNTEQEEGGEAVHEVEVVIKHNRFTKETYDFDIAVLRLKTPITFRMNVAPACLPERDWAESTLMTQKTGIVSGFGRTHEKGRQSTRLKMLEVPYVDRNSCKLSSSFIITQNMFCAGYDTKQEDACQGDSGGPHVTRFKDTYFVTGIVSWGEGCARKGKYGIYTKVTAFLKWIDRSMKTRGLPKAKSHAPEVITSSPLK
Data set [13] is described as follows: Cytotoxicity against human A549 cells incubated for 42 hrs by MTT assay. It is filed as toxicity, cell-based.
In data set [14] the test system is Zika virus. Put plainly: Antiviral activity against Zika virus Puerto Rico strain PRVABC59 infected in human A549 cells measured after 48 hrs by plaque reduction assay. It counts as functional, organism-based. To be noted: Puerto Rico strain PRVABC59, A549, 48 h.
Data set [15] has as its system West Nile virus. Briefly: Antiviral activity against West Nile virus NY003356V2 infected in human A549 cells measured after 48 hrs by plaque reduction assay. It counts as functional, organism-based. To be noted: NY003356V2, A549, 48 h.
For data set [16], the system named is dengue virus type 2. Briefly: Antiviral activity against DENV2 New Guinea C infected in human A549 cells measured after 48 hrs by plaque reduction assay. It counts as functional, organism-based. The following applies: A549, 48 h. A general note: Plaque reduction counts the foci of infection that form in a cell layer.
Data set [17] has as its system West Nile virus. Put plainly: Antiviral activity against West Nile virus infected in human A549 cells measured after 42 hrs by plaque reduction assay. It counts as functional, organism-based.
In data set [18] the test system is Zika virus. Put plainly: Antiviral activity against Zika virus Puerto Rico strain PRVABC59 infected in human A549 cells measured after 42 hrs incubation under dark conditions by plaque reduction assay. It is filed as functional, organism-based. The following applies: Puerto Rico strain PRVABC59, A549, 42 h.
Data set [19] relates to dengue virus type 2. Put plainly: Antiviral activity against DENV2 infected in human A549 cells measured after 42 hrs by plaque reduction assay. It is filed as functional, organism-based. The following applies: A549, 42 h.
Data set [20] relates to West Nile virus. Put plainly: Inhibition of West Nile virus EG101 NS2BH-NS3 protease expressed in Escherichia coli Top10 F' cells using Boc-Gly-Lys-Arg-AMC as substrate preincubated with compound for 15 mins followed by substrate addition and measured after 15 mins by fluorescence based assay. To be noted: time 30.0 min.
Data set [21] in a line: Inhibition of Dengue virus 4 NS2B-NS3 protease using Benzoyl-Nle-Lys-Arg-Arg-AMC as substrate preincubated for 1 hrs followed by substrate addition and measured after 10 mins by fluorescence based plate reader analysis. The arrangement: species or system dengue virus type 4.
A short description of data set [22]: Cytotoxicity against golden hamster BHK-21 cells incubated for 24 hrs by ATP-lite assay. It is filed as toxicity, cell-based, Mesocricetus auratus.
Data set [23] concerns West Nile virus. Put plainly: Antiviral activity against West Nile virus New York 99 infected in golden hamster BHK-21 cells co-expressing renilla luciferase assessed as inhibition of viral […] replication incubated for 24 hrs. It counts as functional, organism-based. To be noted: New York 99, BHK-21, 24 h.
The test system of data set [24] is West Nile virus. Briefly: Antiviral activity against West Nile virus NY99 infected in human A549 cells measured after 48 hrs by plaque reduction assay. It is filed as functional, organism-based. The following applies: NY99, A549, 48 h.

The term EC50 denotes the concentration giving half of the maximal effect. Broadly, the CC50 is the concentration that lowers cell viability or growth by half. In general, IC50 refers to the concentration that inhibits the measured activity by half. What is called Ki is a dissociation constant, usually derived from enzyme kinetics or from competition with a known ligand. Broadly, the EC90 is the concentration at which the effect reaches the 90% level.

Molecules are shown by their SMILES. *1 amine or outer side, *2 acyl side, *3 side chain or, on linkers, in order; H or OH if unused. Where a SMILES comes first, the peptide text is derived from it. [ ]: non-standard residue; d: D form. X1 = N=C(N)N[C@@H](CCCCN[*:1])C(=O)[*:2]; βAla = NCCC(=O)O Some results are limits rather than exact numbers.

Regarding `C=CCc1ccc(OCc2cn(Cc3ccccc3Br)nn2)c(OC)c1`, the concentration for a half-maximal effect (EC50) in data set [1], in data set [2], in data set [3] and in data set [4] was 14 µM each time. The same molecule displayed a CC50 at 24 h in data set [5] of over 300 µM.

In [6], `NCc1ccc(-c2ncc(OCC3CCNCC3)nc2-c2ccc(-c3cn[nH]c3)cc2)cc1` returned an IC50 of 0.2 µM.

Regarding `Cc1ccc(C(=O)c2cc(O)c(O)c([N+](=O)[O-])c2)cc1` [TOLCAPONE], the CC50 at 24 h in [7] was found to be 29.2 µM. The EC50 in [8] was found to be 2 µM.

As to `N=C(N)Nc1ccc(OC(=O)c2ccc(NC(=N)N)cc2)cc1`, in [9], the K worked out at 4.6 µM.

For the molecule `CCc1ccc(NC(=O)CSc2nc3ccc(NC(=O)CSc4nnc(-c5ccccc5)[nH]4)cc3s2)cc1`, the K in [10] was found to be 2.8 µM.

In the case of `N=C(N)N[C@H]1CC[C@H](CNC(=O)[C@H](CCCCN)NC(=O)[C@H](CCCCN)NC(=O)Cc2ccc(Cl)c(Cl)c2)CC1`, the Ki in [11] is over 500 µM; in data set [12], over 200 µM.

Consider `O=C1C=C/C(=N\Nc2ccc([N+](=O)[O-])cc2Cl)C=C1C(=O)Nc1cccc(Cl)c1`, for which the CC50 at 42 h in data set [13] came to 48.8 µM. For the same molecule, the EC50 in [14] was 1 µM; in data set [15] it was 1.27 µM; in data set [16] it was 0.81 µM.

For `Oc1cccc(-c2c3nc(c(-c4cccc(O)c4)c4ccc([nH]4)c(-c4cccc(O)c4)c4nc(c(-c5cccc(O)c5)c5ccc2[nH]5)CC4)C=C3)c1` [TEMOPORFIN], the CC50 at 42 h in [13] came out at 40.7 µM. Further, the EC50 in data set [17] (A549, 42 h) came to 0.01 µM; in data set [18] it was 0.022 µM; in data set [19] it was 0.02 µM. The molecule also returned an EC90 in data set [17] (A549, time 42 hrs) of 0.03 µM.

In the case of `Oc1ccccc1C(Nc1nccs1)c1ccc2cccnc2c1O` (stereo not drawn), the K in data set [20] stood at 3.4 µM.

`N=C(N)N[C@H]1CCCCNC(=O)[C@H](CCCCN)NC(=O)[C@H](CCCCN)NC(=O)CCNC(=O)CNC(=O)CNC1=O` (cyclo(GG[βAla]KK[X1])) displayed a Ki in data set [21] of 0.16 µM.

As for `Clc1cc(OCc2nnc3sc(Cc4ccccc4)nn23)c(Cl)cc1OCc1nnc2sc(Cc3ccccc3)nn12`, in [22], the CC50 at 24 h is over 200 µM. In [23], the EC50 worked out at 17 µM.

Regarding `O=C1OC2(c3ccccc31)c1cc(I)c(O)c(I)c1Oc1c2cc(I)c(O)c1I` [ERYTHROSINE], the EC50 in [14] is 0.62 µM; in [24], 0.66 µM; in data set [16], 1.2 µM.
